Data: US11613522B2, “Herbicidally active 3-phenylisoxazoline-5-carboxamides of tetrahydro- and dihydrofurancarboxamides” (BAYER AKTIENGESELLSCHAFT, priority 2017, dated 2023)

Experiments:
Type in all cases: in vivo
Abutilon theophrasti = test: Post-emergence herbicidal activity against ABUTH; details: dosage 320 g/ha, rated visually after about 3 weeks
Procedure: (§1) [table] Seeds of monocotyledonous and dicotyledonous weeds and crop plants are placed in sandy loam in plastic or wood-fiber pots, covered with soil and cultivated in a greenhouse under controlled growth conditions. 2 to 3 weeks after sowing, the test plants are treated at the one-leaf stage. The compounds of the invention, formulated in the form of wettable powders (WP) or as emulsion concentrates (EC), are then sprayed onto the green parts of the plants as aqueous suspension or emulsion with addition of 0.5% additive at a water application rate of 600 l/ha (converted). After the test plants had been kept in the greenhouse under optimum growth conditions for about 3 weeks, the activity of the preparations is rated visually in comparison to untreated controls. For example, 100% activity=the plants have died, 0% activity=like control plants.

Alopecurus myosuroides [1] = test: Pre-emergence herbicidal activity against ALOMY; details: dosage 80 g/ha, scored visually after about 3 weeks vs untreated controls
Description: (§2) 1. Pre-emergence herbicidal action against harmful plants and crop plant compatibility Seeds of monocotyledonous and dicotyledonous weed plants and crop plants are placed in plastic or wood fiber pots and covered with soil. The compounds of the invention, formulated in the form of wettable powders (WP) or as emulsion concentrates (EC), are then applied onto the surface of the covering soil as aqueous suspension or emulsion with addition of 0.5% additive at a water application rate of 600 l/ha (converted). After the treatment, the pots are placed in a greenhouse and kept under good growth conditions for the trial plants. After about 3 weeks, the effect of the preparations is scored visually in comparison with untreated controls as percentages. For example, 100% activity=the plants have died, 0% activity=like control plants. [table]

Hordeum murinum [2] = test: Pre-emergence herbicidal activity against HORMU; details: dosage 80 g/ha
Description: as §2

Polygonum convolvulus [3] = test: Pre-emergence herbicidal activity against POLCO; details: dosage 80 g/ha, scored visually after about 3 weeks vs untreated controls
Description: as §2

Lolium rigidum [4] = test: Pre-emergence herbicidal activity against LOLRI; details: dosage 80 g/ha, scored visually after about 3 weeks vs untreated controls
Description: as §2

Amaranthus retroflexus [5] = test: Pre-emergence herbicidal activity against AMARE; details: dosage 80 g/ha, scored visually after about 3 weeks vs untreated controls
Description: as §2

Setaria viridis [6] = test: Pre-emergence herbicidal activity against SETVI; details: dosage 80 g/ha, scored visually after about 3 weeks vs untreated controls
Description: as §2

Amaranthus retroflexus [7] = test: Post-emergence herbicidal activity against AMARE; details: dosage 320 g/ha, rated visually after about 3 weeks
Procedure: as §1

Polygonum convolvulus [8] = test: Post-emergence herbicidal activity against POLCO; details: dosage 320 g/ha, rated visually after about 3 weeks
Procedure: as §1

Echinochloa crus-galli [9] = test: Pre-emergence herbicidal activity against ECHCG; details: dosage 80 g/ha, scored visually after about 3 weeks vs untreated controls
Description: as §2

Stellaria media [10] = test: Post-emergence herbicidal activity against STEME; details: dosage 320 g/ha, rated visually after about 3 weeks
Procedure: as §1

Viola tricolor [11] = test: Post-emergence herbicidal activity against VIOTR; details: dosage 320 g/ha, rated visually after about 3 weeks
Procedure: as §1

Stellaria media [12] = test: Pre-emergence herbicidal activity against STEME; details: dosage 80 g/ha, scored visually after about 3 weeks vs untreated controls
Description: as §2

Viola tricolor [13] = test: Pre-emergence herbicidal activity against VIOTR; details: dosage 80 g/ha, scored visually after about 3 weeks vs untreated controls
Description: as §2

Avena fatua [14] = test: Post-emergence herbicidal activity against AVEFA; details: dosage 320 g/ha, rated visually after about 3 weeks
Procedure: as §1

Lolium rigidum [15] = test: Post-emergence herbicidal activity against LOLRI; details: dosage 320 g/ha, rated visually after about 3 weeks
Procedure: as §1

Veronica persica [16] = test: Post-emergence herbicidal activity against VERPE; details: dosage 320 g/ha, rated visually after about 3 weeks
Procedure: as §1

Veronica persica [17] = test: Pre-emergence herbicidal activity against VERPE; details: dosage 80 g/ha
Description: as §2

Hordeum murinum [18] = test: Post-emergence herbicidal activity against HORMU; details: dosage 320 g/ha, rated visually after about 3 weeks
Procedure: as §1

Setaria viridis [19] = test: Post-emergence herbicidal activity against SETVI; details: dosage 320 g/ha, rated visually after about 3 weeks
Procedure: as §1

Alopecurus myosuroides [20] = test: Post-emergence herbicidal activity against ALOMY; details: dosage 320 g/ha, rated visually after about 3 weeks
Procedure: as §1

Echinochloa crus-galli [21] = test: Post-emergence herbicidal activity against ECHCG; details: dosage 320 g/ha, rated visually after about 3 weeks
Procedure: as §1

Avena fatua [22] = test: Pre-emergence herbicidal activity against AVEFA; details: dosage 80 g/ha, scored visually after about 3 weeks vs untreated controls
Description: as §2

Pharbitis purpurea = test: Post-emergence herbicidal activity against PHBPU; details: dosage 320 g/ha, rated visually after about 3 weeks
Procedure: as §1

CN(C)NC(=O)[C@@H]1C[C@H](NC(=O)[C@@]2(C)CC(c3cc(F)cc(F)c3)=NO2)CO1 [Example I-26]
100%: Pre-emergence herbicidal activity in % against ALOMY (Alopecurus myosuroides [1]) | Pre-emergence herbicidal activity in % against LOLRI (Lolium rigidum [4]) | Pre-emergence herbicidal activity in % against AMARE (Amaranthus retroflexus [5]) | Post-emergence herbicidal activity in % against STEME (Stellaria media [10]) | Pre-emergence herbicidal activity in % against STEME (Stellaria media [12]) | Post-emergence herbicidal activity in % against AVEFA (Avena fatua [14]) | Post-emergence herbicidal activity in % against LOLRI (Lolium rigidum [15]) | Post-emergence herbicidal activity in % against HORMU (Hordeum murinum [18]) | Post-emergence herbicidal activity in % against ALOMY (Alopecurus myosuroides [20]) | Post-emergence herbicidal activity in % against ECHCG (Echinochloa crus-galli [21])
80%: Post-emergence herbicidal activity in % against ABUTH (Abutilon theophrasti) | Post-emergence herbicidal activity in % against AMARE (Amaranthus retroflexus [7]) | Post-emergence herbicidal activity in % against POLCO (Polygonum convolvulus [8]) | Pre-emergence herbicidal activity in % against VIOTR (Viola tricolor [13]) | Post-emergence herbicidal activity in % against VERPE (Veronica persica [16]) | Pre-emergence herbicidal activity in % against VERPE (Veronica persica [17]) | Post-emergence herbicidal activity in % against SETVI (Setaria viridis [19])
90%: Pre-emergence herbicidal activity in % against HORMU (Hordeum murinum [2]) | Pre-emergence herbicidal activity in % against POLCO (Polygonum convolvulus [3]) | Pre-emergence herbicidal activity in % against SETVI (Setaria viridis [6]) | Pre-emergence herbicidal activity in % against ECHCG (Echinochloa crus-galli [9]) | Post-emergence herbicidal activity in % against VIOTR (Viola tricolor [11]) | Pre-emergence herbicidal activity in % against AVEVA (AVEFA) (Avena fatua [22]) | Post-emergence herbicidal activity in % against PHBPU (Pharbitis purpurea)
